# According to patent publication US20230406856A1, “SUBSTITUTED PYRROLO [2, 3-b] PYRIDINE AND PYRAZOLO [3, 4-b] PYRIDINE DERIVATIVES AS PROTEIN KINASE INHIBITORS” (Fochon Biosciences, Ltd., priority 2020, published 2023):
# Key:
# [1] = Pharmacokinetics in male Beagle dogs, single oral gavage; type: in vivo
# Method: The purpose of this study was to determine the pharmacokinetics of Example 1 in male Beagle dogs (Supplied by Marshall Bioresources, Beijing, China).
# (§1) Animals were administered with Example 1 and Reference Compound 1 by single oral gavage (PO) administration at 3 mg/kg and 5 mg/kg, respectively, which was formulated in 10% DMSO (Sigma, Batch #STBJ2353): 60% PEG400 (PanReac AppliChem, Batch #1480132): 30% water at 5 mg/mL as a solution. Blood samples were collected at predose, 0.083, 0.25, 0.5, 1, 2, 4, 8, 12 and 24 hours post-dose. Concentrations of Example 1 and Reference Compound 1 in plasma were determined by LC/MS/MS (LC: Waters; MS: API4000).
# DOHH2 cells = assay: Cell proliferation assay in DOHH2 cells (MTS); type: cell-based; settings: Homo sapiens, DOHH-2, inhibition of DOHH2 cell proliferation, 120 h incubation
# Method: To investigate whether a compound is able to inhibit the activity of BTK in cells, a mechanism-based assay using DOHH2 (DSMZ catalog #: ACC47) cell was developed. In this assay, inhibition of BTK was detected by the inhibition of DOHH2 cells proliferation. Cells were collected and plated onto 96-well plates at the optimized cell density (5000 cells/well). Plates were incubated at 37° C., with 5% CO2 for 4h. Compounds were serially diluted and added to the plates with the final concentrations as 10000, 3333.3, 1111.1, 370.4, 123.5, 41.2, 13.7, 4.6 and 1.5 nM. Plates were incubated at 37° C., with 5% CO2 for 120 h. An aliquot of 20 μL MTS/100 μL medium mixture solution were added to each well and the plates were incubated for exactly 2 h. The reaction was stopped by adding 25 μL 10% SDS to each well. The absorbance was measured by a microplate reader at 490 nm and 650 nm (reference wavelength). IC50 was calculated using GraphPad Prism 5.0.
# [2] = Pharmacokinetics in male Sprague-Dawley rats, single oral gavage; type: in vivo; settings: 5 mg/kg; for AUC(0-t) / half-life: rat, plasma
# Method: The purpose of this study was to determine the pharmacokinetics of Example 1 and Example 2 in male Sprague-Dawley rats (Supplied by Beijing Vital River Laboratory Animal Technology Co., Ltd.).
# as §1, with “and Example 2” for “and Reference Compound 1”, “at” for “at 3 mg/kg and”, “at 2” for “at 5”, “(LC: Waters UPLC;” for “(LC: Waters;”
# BTK (C481S) = BTK (C481S) (Homo sapiens (Human), UniProt Q06187, C481S); assay: Kinase assay of BTK (C481S), [33P]-ATP filter-binding, at Reaction Biology Corporation; type: biochemical; settings: 10 μM ATP, 6 nM BTK (C481S), pEY substrate, 20 min pre-incubation, 120 min reaction
# Sequence of BTK (C481S) (Q06187 whole entry C481S): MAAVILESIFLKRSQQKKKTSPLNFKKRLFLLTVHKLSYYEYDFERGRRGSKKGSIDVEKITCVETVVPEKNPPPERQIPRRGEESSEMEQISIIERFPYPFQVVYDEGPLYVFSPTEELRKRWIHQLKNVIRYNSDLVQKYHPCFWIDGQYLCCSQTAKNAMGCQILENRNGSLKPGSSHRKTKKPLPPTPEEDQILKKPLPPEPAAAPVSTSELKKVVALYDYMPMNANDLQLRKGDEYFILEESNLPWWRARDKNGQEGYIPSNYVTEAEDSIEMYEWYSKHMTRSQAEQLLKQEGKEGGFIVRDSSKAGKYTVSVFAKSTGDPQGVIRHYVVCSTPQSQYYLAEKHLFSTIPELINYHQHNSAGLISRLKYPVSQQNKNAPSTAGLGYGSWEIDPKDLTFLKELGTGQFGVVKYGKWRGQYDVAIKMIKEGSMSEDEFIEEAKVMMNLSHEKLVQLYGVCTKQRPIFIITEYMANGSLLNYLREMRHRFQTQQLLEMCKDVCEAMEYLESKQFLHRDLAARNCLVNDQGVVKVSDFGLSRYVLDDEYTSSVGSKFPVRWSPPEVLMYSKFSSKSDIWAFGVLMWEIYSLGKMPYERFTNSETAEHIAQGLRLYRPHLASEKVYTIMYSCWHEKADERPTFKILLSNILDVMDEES
# Method: The kinase activity of BTK (C481S) was assayed at Reaction Biology Corporation. The substrate in the BTK (C481S) reaction, pEY (poly[Glu:Tyr] (4:1)) (Sigma, Cat. #P7244-250MG), was prepared in fresh reaction buffer (20 mM Hepes (pH 7.5), 10 mM MgCl2, 1 mM EGTA, 0.02% Brij35, 0.02 mg/ml BSA, 0.1 mM Na3VO4, 2 mM DTT, 1% DMSO). BTK(C481S) (SignalChem, Cat. #B10-12CH) was delivered into the substrate solution and mixed gently. The final concentrations of BTK (C481S) and the substrate in the reaction mixture were 6 nM and 0.2 mg/ml, respectively. Compounds were tested in 10-point concentration/response mode with 3-fold serial dilution steps starting at 1 μM.
# Compounds in 100% DMSO were delivered into the kinase reaction mixture by acoustic liquid delivery technology (Echo550; nanoliter range) and incubated for 20 min at room temperature. 10 μM [^33P]-ATP (ATP: Sigma, Cat #: A7699; [^33P]-ATP: Hartmann Analytic, Cat #: SCF-301-12) was delivered into the reaction mixture to initiate the reaction. The mixture was incubated for 120 min at room temperature. Radioactivity was detected utilizing a proprietary filter-binding method. Kinase activity data were expressed as the percent remaining kinase activity in test samples compared to vehicle (DMSO) reactions. IC50 values were obtained using GraphPad Prism software.
F [2],AUC(0-t) [2],half-life [2],IC50 (BTK (C481S)),Structure (SMILES),IC50 (DOHH2 cells),further results
24.9%,4950 ng·h/mL,221 min,1.5 nM,"CS(=O)(=O)NC[C@@H]1CC[C@@H](Nc2c(F)cnc3[nH]cc(C(=O)c4ccc(Oc5c(F)cccc5F)cc4F)c23)CO1 [Example 1, N-(((2S,5R)-5-((3-(4-(2,6-difluorophenoxy)-2-fluorobenzoyl)-5-fluoro-1H-pyrrolo[2,3-b]pyridin-4-yl)amino)tetrahydro-2H-pyran-2-yl)methyl)methanesulfonamide]",1 nM,"F ([1]; 3 mg/kg): 26.0%; AUC(0-t) ([1]; dog, 3 mg/kg, plasma): 3820 ng·h/mL; half-life ([1]; dog, 3 mg/kg, plasma): 936 min"
31%,8340 ng·h/mL,185 min,0.66 nM,"CS(=O)(=O)NC[C@@H]1CC[C@@H](Nc2c(F)cnc3[nH]cc(C(=O)c4ccc(Oc5ccccc5F)cc4F)c23)CO1 [Example 2, N-(((2S,5R)-5-((5-fluoro-3-(2-fluoro-4-(2-fluorophenoxy)benzoyl)-1H-pyrrolo[2,3-b]pyridin-4-yl)amino)tetrahydro-2H-pyran-2-yl)methyl)methanesulfonamide]",27 nM,–
–,–,–,–,"CCS(=O)(=O)NC[C@@H]1CC[C@@H](Nc2c(F)cnc3[nH]cc(C(=O)c4ccc(Oc5ccccc5F)cc4F)c23)CO1 [Example 3, N-(((2S,5R)-5-((5-fluoro-3-(2-fluoro-4-(2-fluorophenoxy)benzoyl)-1H-pyrrolo[2,3-b]pyridin-4-yl)amino)tetrahydro-2H-pyran-2-yl)methyl)ethanesulfonamide]",1 nM,–
–,–,–,–,"CCS(=O)(=O)NC[C@@H]1CC[C@@H](Nc2c(F)cnc3[nH]cc(C(=O)c4ccc(Oc5c(F)cccc5F)cc4F)c23)CO1 [Example 6, N-(((2S,5R)-5-((3-(4-(2,6-difluorophenoxy)-2-fluorobenzoyl)-5-fluoro-1H-pyrrolo[2,3-b]pyridin-4-yl)amino)tetrahydro-2H-pyran-2-yl)methyl)ethanesulfonamide]",1 nM,–
–,–,–,–,"O=C(c1ccc(Oc2c(F)cccc2F)cc1F)c1c[nH]c2ncc(F)c(N[C@@H]3CC[C@@H](CNS(=O)(=O)C4CC4)OC3)c12 [Example 8, N-(((2S,5R)-5-((3-(4-(2,6-difluorophenoxy)-2-fluorobenzoyl)-5-fluoro-1H-pyrrolo[2,3-b]pyridin-4-yl)amino)tetrahydro-2H-pyran-2-yl)methyl)cyclopropanesulfonamide]",1 nM,–
–,–,–,–,"CCOc1cnc2[nH]cc(C(=O)c3ccc(Oc4ccccc4F)cc3F)c2c1N[C@@H]1CC[C@@H](CO)OC1 [Reference Compound 1, (5-ethoxy-4-(((3R,6S)-6-(hydroxymethyl)tetrahydro-2H-pyran-3-yl)amino)-JH-pyrrolo[2,3-b]pyridin-3-yl)(2-fluoro-4-(2-fluorophenoxy)phenyl)methanone, reference compound]",–,"F ([1]; 5 mg/kg): 9.82%; AUClast ([1]; 5 mg/kg, plasma): 200 ng·h/mL; T1/2 ([1]; 5 mg/kg, plasma): 3.39 h"
